This is an account of results in patent US6534508B2, “Methods and compositions for treating infection using optically pure (S)-lomefloxacin” (priority 1991, dated 2003).

One series relates to β-adrenergic. To be noted: L-form vs D-enantiomer; cited from earlier work.
The test system of another series is M. kansasii. Nature of the series: Broth microdilution MIC, M. kansasii isolates. Type of series: cell-based. To be noted: 10 strains, 7 days incubation, 7H9 broth. (In general: Dilution methods test growth across graded concentrations, often in twofold steps.)
For another series, the system named is M. avium. Put plainly: Broth microdilution MIC, M. avium isolates. In kind it is cell-based. To be noted: 11 strains, 7 days incubation, 7H9 broth.
A further series concerns M. chelonei C315. Nature of the series: Broth microdilution MIC, M. chelonei C315. Type of series: cell-based. The following applies: for MIC50: as worded in conclusions, single strain.
Another series relates to M. marinum ATCC 927. Put plainly: Broth microdilution MIC, M. marinum ATCC 927. In kind it is cell-based.
The test system of series [1] is M. tuberculosis. Put plainly: Broth microdilution MIC, M. tuberculosis isolates. Type of series: cell-based. The following applies: 12 strains, 14 days incubation, 7H9 broth.
Series [2] has as its system M. tuberculosis. The following applies: 79 strains susceptible to conventional drug therapy; cited from earlier work.
The conditions of series [3]: human, in vivo, cited from earlier work.
Setting [4] is: 1 strain, 4 days incubation, 7H9 broth.
Where [5] appears, read: 1 strain, 7 days incubation at 30° C., 7H9 broth.
The mark [6] stands for this setting: as worded in conclusions, single strain.

≈ marks a conversion by molar mass, not a printed value. Read-outs that look alike come from different tables or passages of the source.

Consider `CC(C)NC[C@H](O)COc1cccc2ccccc12` [L-form of propranolol, propranolol], for which the “potency relative to the D-enantiomer” value in the series with β-adrenergic is on record as 100 times.
In general, MIC50 refers to the lowest concentration that inhibits either 50% of growth or 50% of the strains tested, depending on the study. By MIC is commonly meant the least concentration at which growth counts as inhibited. For the molecule `CCn1cc(C(=O)O)c(=O)c2cc(F)c(N3CCN[C@@H](C)C3)c(F)c21` [S-LM, (S)-lomefloxacin], the “Susceptibility, MIC50” value with M. kansasii is 1 µg/mL; in the series with M. avium, 8 µg/mL; in the series with M. tuberculosis [1] it was 0.5 µg/mL. Besides, the entries for the “Susceptibility, MIC90” value in the series on M. kansasii, in the series on M. kansasii (listed as (S)-LM) and in the series with M. avium were 2 µg/mL, 2.0 µg/mL and 16 µg/mL, respectively. The “Susceptibility, Range” value in the series on M. kansasii fell in the range of 1 to 2 µg/mL; in the series with M. avium, 2 to 16 µg/mL; in the series on M. tuberculosis [1], 0.25 to 1 µg/mL. Further, the “Susceptibility, MIC” value in the series with M. chelonei C315 (setting [4]) and with M. marinum ATCC 927 (setting [5]) was 2 µg/mL in each case. Moreover, the MIC50 with M. chelonei C315 amounted to 2.0 µg/mL (≈ 5.69 µM). Moreover, the MIC against M. marinum ATCC 927 (setting [6]) stood at 2.0 µg/mL (≈ 5.69 µM).
On to `CCn1cc(C(=O)O)c(=O)c2cc(F)c(N3CCN[C@H](C)C3)c(F)c21` [R-LM, (R)-lomefloxacin], for which the “Susceptibility, MIC50” value came to 2 µg/mL in the series with M. kansasii, 16 µg/mL in the series with M. avium and 2 µg/mL in the series on M. tuberculosis [1]. Besides, the “Susceptibility, MIC90” value turned out to be 4 µg/mL in the series on M. kansasii, 4.0 µg/mL with M. kansasii (listed as (R)-LM), 32 µg/mL in the series with M. avium and 4 µg/mL in the series with M. tuberculosis [1]. For the same molecule, the “Susceptibility, Range” value was in the range of 2 to 4 µg/mL in the series on M. kansasii, 4 to 32 µg/mL in the series with M. avium and 1 to 4 µg/mL in the series on M. tuberculosis [1]. The “Susceptibility, MIC” value with M. chelonei C315 (setting [4]) and in the series with M. marinum ATCC 927 (setting [5]) was 4 µg/mL throughout. In the series on M. chelonei C315, this molecule yielded an MIC50 of 4.0 µg/mL (≈ 11.4 µM). Besides, in the series on M. marinum ATCC 927 (setting [6]), the MIC amounted to 4.0 µg/mL (≈ 11.4 µM).
As a reminder, the MIC90 is the lowest concentration that inhibits either 90% of growth or 90% of the strains tested, depending on the study. Consider `CCn1cc(C(=O)O)c(=O)c2cc(F)c(N3CCNC(C)C3)c(F)c21` (racemic) [LM, 1-ethyl-6,8-difluoro-1,4-dihydro-7-(3-methyl-lpiperazinyl)-4-oxo-3-quinolinecarboxylic acid], for which the MIC50 in the series on M. tuberculosis [2] was 0.96 µg/mL (≈ 2.73 µM); in the series with M. kansasii (Mycobacterium kansasii, 168 h, read-out: Susceptibility, MIC50), 1 µg/mL (≈ 2.85 µM); in the series with M. avium (Mycobacterium avium, 168 h, read-out: Susceptibility, MIC50), 8 µg/mL (≈ 22.8 µM); in the series on M. chelonei C315 (Mycobacteroides abscessus, C315, read-out: MIC50), 4 µg/mL (≈ 11.4 µM); against M. marinum ATCC 927 (Mycobacterium marinum, ATCC927, as worded in conclusions, single strain) it was 4 µg/mL (≈ 11.4 µM); with M. tuberculosis [1] (Mycobacterium tuberculosis, 336 h, read-out: Susceptibility, MIC50), 1 µg/mL (≈ 2.85 µM). For the same molecule, the MIC90 with M. tuberculosis [2] is 1.02 µg/mL (≈ 2.9 µM); in the series on M. kansasii (Mycobacterium kansasii, 168 h, read-out: Susceptibility, MIC90), 2 µg/mL (≈ 5.69 µM); in the series with M. avium (Mycobacterium avium, 168 h, read-out: Susceptibility, MIC90), 16 µg/mL (≈ 45.5 µM); with M. tuberculosis [1] (Mycobacterium tuberculosis, 336 h, read-out: Susceptibility, MIC90), 2 µg/mL (≈ 5.69 µM). In addition, the “Susceptibility, MIC90” value in the series with M. kansasii was 2.0 µg/mL. In addition, the “Susceptibility, Range” value in the series on M. kansasii was 1 to 2 µg/mL; in the series on M. avium, 4 to 16 µg/mL; with M. tuberculosis [1], 0.5 to 2 µg/mL. Moreover, the MIC was determined as 4 µg/mL (≈ 11.4 µM) with M. chelonei C315 (Mycobacteroides abscessus, C315, 96 h, 1 strain, 4 days incubation, 7H9 broth, read-out: Susceptibility, MIC) and 4 µg/mL (≈ 11.4 µM) in the series on M. marinum ATCC 927 (Mycobacterium marinum, ATCC927, 168 h, 1 strain, 7 days incubation at 30° C., 7H9 broth, read-out: Susceptibility, MIC). Also, the average elimination half-life entry in series [3] (po) is “approximately 8 hours”. In addition, the “prolongation of the half-life” value in series [3] is on record as “up to 24 hours”.
